Test results reported in patent US8642759B2, “Benzene sulfonamide thiazole and oxazole compounds” (GlaxoSmithKline LLC, priority 2008, dated 2014).
Where two headings read alike, the source gives them in different places.

Columns and labels:
[1] = test system: cancer cell lines encoding B-Raf V600E mutation; assay: 3 day proliferation assay, panel of 22 cancer cell lines encoding B-Raf V600E; format: cell-based; conditions: count of cell lines of the panel of 22
[2] = test system: A375P F11s; assay: Dose dependent tumor inhibition, A375P F11s subcutaneous xenograft; format: in vivo, athymic mice; set-up: key: −: indicates no response; +: indicates growth delay (1-2× doubling); ++: indicates growth delay (>2× doubling); +++: indicates stable disease; ++++: indicates partial regression; +++++: indicates complete regression; conditions: oral, 14-day period
Description: A375P F11s were cultured in RPMI 1640 medium supplemented with 10% fetal bovine serum, 1% Penicillin-streptomycin and 1% sodium pyruvate. Tumor cells (2×10^6 A375P F11s) were implanted subcutaneously into the right flank of athymic mice on Day 1. To facilitate their growth, A375P F11s cells were suspended in Matrigel diluted 1:1 in phosphate-buffered saline before implantation. When tumors had reached approximately 200 mm^3 in volume (Day 19-22), tumor-bearing mice were randomized into study groups (n=7 or 8). Animals were dosed orally once or twice daily for a 14-day period. […] Tumor growth was measured twice a week using calipers for the duration of the study. Tumor volumes were calculated as a product of (length×width×width)/2 and median values were used to compare groups. Complete regressions (CR) were defined as three consecutive tumor measurements of ≦13.5 mm^3. Partial regressions were defined as three consecutive measurements of ≦50% of starting tumor volume. Tumor growth delay was defined as the difference in time taken for treated and control groups to reach 1000 mm^3 (T-C1000).

[3] = target: T1, His6-tagged BRAFV600E full-length (amino acids 2-766) (Homo sapiens, UniProt P15056, V600E); assay: biochemical; format: biochemical
T1 construct: BRAFV600E full-length (amino acids 2-766); His6; made in house
T1 sequence (P15056 2-766 V600E): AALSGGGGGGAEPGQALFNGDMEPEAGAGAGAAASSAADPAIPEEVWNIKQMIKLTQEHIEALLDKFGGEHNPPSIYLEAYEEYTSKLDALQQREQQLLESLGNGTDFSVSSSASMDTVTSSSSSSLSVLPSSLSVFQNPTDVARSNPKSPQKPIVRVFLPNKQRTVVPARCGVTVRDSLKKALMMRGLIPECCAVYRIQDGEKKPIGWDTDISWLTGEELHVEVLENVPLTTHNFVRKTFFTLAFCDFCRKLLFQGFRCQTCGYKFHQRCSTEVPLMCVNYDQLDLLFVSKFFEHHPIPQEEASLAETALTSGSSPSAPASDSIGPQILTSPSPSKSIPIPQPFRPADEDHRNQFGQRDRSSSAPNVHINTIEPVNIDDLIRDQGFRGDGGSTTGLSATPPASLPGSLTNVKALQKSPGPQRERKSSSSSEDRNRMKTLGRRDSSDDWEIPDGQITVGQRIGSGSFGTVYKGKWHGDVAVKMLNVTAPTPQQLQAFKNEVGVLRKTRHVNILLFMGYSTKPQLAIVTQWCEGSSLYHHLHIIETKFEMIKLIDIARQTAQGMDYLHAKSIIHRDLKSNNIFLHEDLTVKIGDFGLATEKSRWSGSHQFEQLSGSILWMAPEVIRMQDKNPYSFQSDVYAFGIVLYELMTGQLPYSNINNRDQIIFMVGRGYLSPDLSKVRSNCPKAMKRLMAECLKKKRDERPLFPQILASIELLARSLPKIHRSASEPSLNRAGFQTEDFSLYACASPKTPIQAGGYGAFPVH
Description: Compounds of the present invention were tested for B-Raf protein serine kinase inhibitory activity in a B-Raf Accelerated MEK ATPase assay (BRAMA). […] The BRAMA assay is a high sensitivity assay which measures an intrinsic MEK-mediated ATP hydrolysis uncoupled from downstream ERK phosphorylation by coupling the formation of ADP to NADH oxidation through the enzymes pyruvate kinase and lactate dehydrogenase. When ADP production is initiated by addition of catalytic amounts of an activated Raf enzyme and non-phosphorylated MEK, one observes robust ADP production concomitant with Raf-mediated phosphorylation of MEK. The method is disclosed in: C. Rominger, M. Schaber, E. May. Assay for B-Raf Activity Based on Intrinsic MEK ATPase Activity.

[4] = test system: Human colon tumor cells (Colo205); assay: Cell growth inhibition assay (CellTiter-Glo), Colo205; format: cell-based; conditions: COLO 205, 72 h, 3 days incubation
Description: Human colon tumor cells (Colo205) were cultured in RPMI (Mediatech 50-020-PB) containing 10% FBS and 1% penicillin-streptomycin.
The next day, compounds were diluted as follow: For 96-well assays, 13.5 μL of compound in DMSO were diluted using nine (9) serial 1:3 dilutions of 4.5 μL in 9 μL of DMSO. Medium (270 μL/well of RPMI with 10% FBS and 1% penicillin-streptomycin) was added to the plates. Aliquots (7 μL) were added to cells in the final assay giving a final DMSO concentration of 0.2%. For 384-well assays, 15 μL of compound in DMSO were diluted using nine (9) serial 1:3 dilutions of 5 μL in 10 μL of DMSO, followed by a further dilution of 5 μL of compound with 95 μL of medium, of which 2 μL were added to cells in the final assay giving a final DMSO concentration of 0.2%. Cells were incubated at 37° C., 5% CO2 for 3 days.
Total ATP was measured (as a surrogate estimate of cell number) using CellTiter-Glo® reagent (Promega G7571). Briefly, plates were removed from the incubator and allowed to equilibrate to room temperature for 30 minutes. CellTiter-Glo® (25 μL or 55 μL for 384-well or 96-well assays, respectively) reagent was added to each well and plates were shaken on an orbital plate shaker for 2 minutes. Plates were incubated without shaking for a further 30 minutes and read on an LJL Analyst GT reader in luminometer mode with an integration time of 0.5 seconds per well. Percent inhibition of cell growth was calculated relative to DMSO vehicle-treated control wells.

[5] = test system: Human melanoma cancer cells (SK-MEL-28); assay: Cell growth inhibition assay (CellTiter-Glo), SK-MEL-28; format: cell-based; conditions: SK-MEL-28, 72 h, 3 days incubation
[6] = Table 1a, highest pIC50 for the one or more runs
[7] = Table 1a, highest pIC50 for the one or more runs, read-out: B-Raf Activity
[8] = Table 1b (later runs), average pIC50 for the one or more runs, read-out: B-Raf plC50
[9] = Table 2a, read-out: Activity in Colo205 Tumor Cells
[10] = Table 2b (later runs), average for the one or more runs, read-out: IC50 for Colo205
[11] = Table 3a, read-out: Activity in SK-MEL-28 Tumor Cells
[12] = Table 3b (later runs), average for the one or more runs, read-out: IC50 for SK-MEL-28

CC(C)(C)c1nc(-c2cccc(NS(=O)(=O)c3c(F)cccc3F)c2F)c(-c2ccnc(N)n2)s1 [Example 58a, N-{3-[5-(2-Amino-4-pyrimidinyl)-2-(1,1-dimethylethyl)-1,3-thiazol-4-yl]-2-fluorophenyl}-2,6-difluorobenzenesulfonamide]
cancer cell lines encoding B-Raf V600E not sensitive (gIC50>1000M) [1]: 4 out of 22
cancer cell lines encoding B-Raf V600E with intermediate response (gIC50≧100 nM and <1000 nM) [1]: 2 out of 22
Response ([2]; 1 mg/kg qd): +
Response ([2]; 10 mg/kg qd): ++ (+)
Response ([2]; 100 mg/kg bid): ++++ (+)
Response ([2]; 100 mg/kg qd): ++++ (+)
Response ([2]; 300 mg/kg bid): ++++ (+)
Response ([2]; 300 mg/kg qd): ++++ (+)

CC(C)c1nc(-c2ccc(F)c(NS(=O)(=O)c3c(F)cccc3F)c2)c(-c2ccnc(NCCN3CCOCC3)n2)s1 [Example 165]
B-Raf Activity [3, 6]: ++ (indicates at least one pIC50 measurement greater than 6 against B-Raf but no measurement greater than pIC50 of 7)

CC(C)c1nc(-c2ccc(F)c(NS(=O)(=O)c3c(F)cccc3F)c2)c(-c2ccnc(NCCOCCO)n2)s1 [Example 166]
B-Raf Activity [3, 6]: ++ (indicates at least one pIC50 measurement greater than 6 against B-Raf but no measurement greater than pIC50 of 7)

CC(C)c1nc(-c2ccc(F)c(NS(=O)(=O)c3c(F)cccc3F)c2)c(-c2ccnc(NCCCCN(C)C)n2)s1 [Example 167]
B-Raf Activity [3, 6]: ++ (indicates at least one pIC50 measurement greater than 6 against B-Raf but no measurement greater than pIC50 of 7)

COCCCNc1nccc(-c2sc(C(C)C)nc2-c2ccc(F)c(NS(=O)(=O)c3c(F)cccc3F)c2)n1 [Example 168]
B-Raf Activity [3, 6]: ++ (indicates at least one pIC50 measurement greater than 6 against B-Raf but no measurement greater than pIC50 of 7)

CC(C)c1nc(-c2cccc(NS(=O)(=O)c3cc(F)ccc3F)c2F)c(-c2ccnc(NCCCNS(C)(=O)=O)n2)s1 [Example 195]
IC50 [3, 7]: < 100 nM
IC50 [3, 8]: ≤ 3.16 nM
IC50 [4, 9]: < 100 nM
IC50 [4, 10]: < 100 nM
IC50 [5, 11]: < 100 nM
IC50 [5, 12]: < 100 nM

CC(C)c1nc(-c2cccc(NS(=O)(=O)c3cc(F)ccc3F)c2F)c(-c2ccnc(NCCCNC(=O)CO)n2)s1 [Example 196]
IC50 [3, 7]: < 100 nM
IC50 [3, 8]: ≤ 3.16 nM
IC50 [4, 9]: < 100 nM
IC50 [4, 10]: < 100 nM
IC50 [5, 11]: < 100 nM
IC50 [5, 12]: < 100 nM
